Values of other authors, collected in US20040024024A1, “Aromatic sulfone hydroxamates and their use as protease inhibitors” (priority 2001, published 2004).

Test system: solid tumor cancers (colorectal, pancreatic, ovarian, and prostate)
Conditions: cited from earlier work

CNC(=O)[C@@H](NC(=O)[C@H](CC(C)C)[C@H](O)C(=O)NO)C(C)(C)C [Marimastat]
most common drug-related toxicity (clinical trials, patients): musculoskeletal pain and stiffness | effect on cancer-specific antigens used as surrogate markers for biological activity (patients with advanced, rapidly progressive, treatment-refractory solid tumor cancers): dose-related reduction in the rise of cancer-specific antigens
